Results as given in paper PMC7226045, “Ensartinib (X-396) Effectively Modulates Pharmacokinetic Resistance Mediated by ABCB1 and ABCG2 Drug Efflux Transporters and CYP3A4 Biotransformation Enzyme” (Cancers, 2020).

Legend:
CYP2C8 = target: T1, CYP2C8 (Homo sapiens, UniProt P10632); assay: Vivid CYP screening kit, recombinant CYP2C8; format: biochemical; details: recombinant enzyme, 15 min incubation, absolute IC50; read-out: CYP2C8 inhibition IC50
T1 construct: purchased Thermo Fisher Scientific; host or cells: insect microsomal fractions
Procedure: CYP inhibitory assay was performed as described previously. Experiments were performed with commercial Vivid CYP screening kits containing insect microsomal fractions enriched with a specific human CYP isoform, human CYP reductase, and in some cases, human cytochrome b5. The potential inhibitory activity of ensartinib toward CYP1A2, CYP2B6, CYP2C8, CYP2C9, CYP2C19, CYP2D6, CYP3A4, and CYP3A5 (i.e., all CYP isoforms that drug regulatory authorities recommend for testing of inhibition by new molecular entities) was then examined. Experiments were performed using a kinetic mode in black 96-well plates according to the manufacturer´s instructions. Briefly, 5-point serial dilutions of ensartinib or the model inhibitor recommended by the manufacturer in buffer were transferred into the wells, then a master mix consisting of a CYP isoenzyme with an NADPH regeneration system in buffer was added. After a 10 min pre-incubation, the reaction was initiated by adding a mixture of NADP^+ and the appropriate Vivid substrate, after which fluorescence was measured at 1 min intervals for 60 min using an Infinite M200 Pro microplate reader (Tecan, Männedorf, Switzerland). The enzyme concentration and incubation interval used for data evaluation (15 min) placed the systems within the linear regions of the appropriate reaction velocity curves. […]

[1] = XTT proliferation / drug combination assay, HL60-ABCG2; format: cell-based, human; details: human, HL60-ABCG2 cells, 48 h, XTT, read-out: IC50, sensitivity to ensartinib
Procedure: (§1) The MTT method is not readily adapted for use with suspension cell cultures, therefore the XTT assay was used to assess the proliferation of HL60 cells. Briefly, HL60-par, HL60-ABCB1, HL60-ABCG2, and HL60-ABCC1 cells were seeded at 2 × 10^4 cells/well in 96-well culture plates. Immediately after seeding, dilutions of the tested drugs or drug combinations were added to the cells. The plates were then incubated under standard conditions (37 °C, 5% CO2) for 48 h, after which XTT solution in PBS (1 mg/mL) and phenazine methosulfate (7.50 µg/mL) were added to the cells and the plates were incubated for another 5 h. Finally, the cells’ absorbance was measured at 450 nm using a microplate reader (Infinite M200, Tecan, Salzburg, Austria). This method was used to assess the effect of ABC transporters on sensitivity to ensartinib and in drug combination assays.
(§2) Experiments focusing on the modulation of ABC transporter-mediated resistance were performed as described previously. The parent MDCKII and HL60 cells and their ABCB1-, ABCG2-, and ABCC1-overexpressing counterparts were seeded at the densities specified above onto 96-well culture plates and cultured for 24 h. The medium was subsequently replaced with serial dilutions of ensartinib alone or with various concentrations of a model MDR-susceptible cytostatic agent (daunorubicin or mitoxantrone) with or without 10 µM ensartinib. After 48 h incubation, the cells’ viability was determined as described above. In addition to performing IC50-shift analyses, the viability measurements were converted to FA (fraction of cells affected) values and the effects of drug combinations were quantified using the Chou-Talalay combination index (CI) method as implemented in CompuSyn 3.0.1 (ComboSyn Inc., Paramus, NJ, USA). The effects of concomitantly administered drugs were classified as synergistic (CI < 0.9), additive (0.9 < CI < 1.1), or antagonistic (CI > 1.1) based on the computed CI values.

HL60-ABCG2 cells = assay: as above; format: cell-based, human
Procedure: as §1, §2

ABCB1 = target: T2, ABCB1 (Homo sapiens, UniProt P08183); assay: hoechst 33342 accumulation assay in MDCKII-ABCB1 cells; format: cell-based; details: read-out: IC50, inhibition of ABCB1 (hoechst 33342 accumulation)
T2 construct: expressed in transfected cells; host or cells: MDCKII-ABCB1 (from Dr. Alfred Schinkel, The Netherlands Cancer Institute)
Procedure: Cellular accumulation assay with hoechst 33342 and calcein AM was performed as described previously. Briefly, MDCKII-par, MDCKII-ABCB1, MDCKII-ABCG2, and MDCKII-ABCC1 cells were seeded at densities of 5.0 × 10^4, 5.0 × 10^4, 5.5 × 10^4, and 6.0 × 10^4 cells/well, respectively, on a transparent 96-well plate and grown to full confluence for 24 h under standard conditions. The cells were then washed twice with 1 × PBS, after which was added either a dilution of ensartinib in Opti-MEM (1, 5, 10, 25, or 50 µM) or a specific inhibitor to act as a positive control (1 µM LY335979, 1 µM Ko143, or 25 µM MK-571 for ABCB1, ABCG2, or ABCC1, respectively). Cells were pre-incubated for 10 min, then 8 µM hoechst 33342 (a model substrate for ABCB1 and ABCG2) or 2 µM calcein AM (ABCC1 substrate) diluted in Opti-MEM was quickly added to all wells other than those containing blank samples. The intracellular levels of the substrates were then determined at 1 min intervals for 30 min using a microplate reader (Infinite M200 Pro, Tecan, Männedorf, Switzerland). Fluorescence was monitored in bottom mode using excitation/emission wavelengths of 350/465 and 485/535 nm for hoechst 33342 and calcein AM, respectively.

T1 sequence (P10632 whole entry): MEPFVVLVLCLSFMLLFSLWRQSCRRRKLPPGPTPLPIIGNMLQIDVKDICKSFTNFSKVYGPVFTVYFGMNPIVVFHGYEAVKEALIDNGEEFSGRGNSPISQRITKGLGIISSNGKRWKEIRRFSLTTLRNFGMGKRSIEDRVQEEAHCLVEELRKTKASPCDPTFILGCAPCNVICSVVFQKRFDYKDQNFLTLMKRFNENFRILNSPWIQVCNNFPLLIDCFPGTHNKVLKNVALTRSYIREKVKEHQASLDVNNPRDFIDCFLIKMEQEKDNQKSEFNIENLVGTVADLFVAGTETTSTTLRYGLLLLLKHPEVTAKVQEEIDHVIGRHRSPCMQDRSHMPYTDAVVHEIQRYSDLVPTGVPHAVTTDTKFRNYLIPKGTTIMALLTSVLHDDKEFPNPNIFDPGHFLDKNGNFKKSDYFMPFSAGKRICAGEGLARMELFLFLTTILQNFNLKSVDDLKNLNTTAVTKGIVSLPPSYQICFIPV
T2 sequence (P08183 whole entry): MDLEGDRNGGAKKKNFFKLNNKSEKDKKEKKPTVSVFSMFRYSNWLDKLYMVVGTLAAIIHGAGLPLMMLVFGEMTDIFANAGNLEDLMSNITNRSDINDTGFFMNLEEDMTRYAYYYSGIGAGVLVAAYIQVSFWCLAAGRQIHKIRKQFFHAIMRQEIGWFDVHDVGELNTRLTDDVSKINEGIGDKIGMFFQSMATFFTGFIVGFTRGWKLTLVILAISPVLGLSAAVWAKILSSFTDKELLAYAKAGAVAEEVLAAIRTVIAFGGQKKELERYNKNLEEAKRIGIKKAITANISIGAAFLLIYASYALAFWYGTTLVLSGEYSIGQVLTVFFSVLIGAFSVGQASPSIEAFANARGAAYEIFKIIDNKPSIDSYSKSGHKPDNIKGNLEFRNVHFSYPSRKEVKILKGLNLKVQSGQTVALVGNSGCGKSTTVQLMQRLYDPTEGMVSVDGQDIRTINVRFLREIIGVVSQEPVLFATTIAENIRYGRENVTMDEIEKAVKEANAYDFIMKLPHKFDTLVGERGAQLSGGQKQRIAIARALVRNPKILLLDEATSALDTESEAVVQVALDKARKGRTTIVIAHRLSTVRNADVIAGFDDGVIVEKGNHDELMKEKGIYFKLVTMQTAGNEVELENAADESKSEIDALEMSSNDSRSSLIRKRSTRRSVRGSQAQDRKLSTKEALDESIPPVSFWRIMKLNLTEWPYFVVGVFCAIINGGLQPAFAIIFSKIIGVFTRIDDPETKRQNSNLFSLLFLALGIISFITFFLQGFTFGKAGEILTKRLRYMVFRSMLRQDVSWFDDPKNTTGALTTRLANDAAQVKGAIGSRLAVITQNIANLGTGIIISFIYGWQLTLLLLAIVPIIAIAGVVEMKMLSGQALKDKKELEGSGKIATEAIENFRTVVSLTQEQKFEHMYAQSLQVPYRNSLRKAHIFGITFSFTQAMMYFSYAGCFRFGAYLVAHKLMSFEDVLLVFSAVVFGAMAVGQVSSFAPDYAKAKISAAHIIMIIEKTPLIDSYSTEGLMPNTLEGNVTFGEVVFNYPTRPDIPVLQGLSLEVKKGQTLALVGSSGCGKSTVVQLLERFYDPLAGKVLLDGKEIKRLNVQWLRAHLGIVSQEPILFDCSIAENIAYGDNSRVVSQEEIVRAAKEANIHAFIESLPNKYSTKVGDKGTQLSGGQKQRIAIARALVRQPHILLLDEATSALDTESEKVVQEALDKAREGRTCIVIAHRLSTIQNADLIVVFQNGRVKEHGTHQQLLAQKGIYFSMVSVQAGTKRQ

With `C[C@@H]1CN(C(=O)c2ccc(NC(=O)c3cc(O[C@H](C)c4c(Cl)ccc(F)c4Cl)c(N)nn3)cc2)C[C@H](C)N1` [ensartinib, Ensartinib] the IC50 (CYP2C8) was 20.6 µM, the IC50 at 48 h [1] was 24.3 µM and the “combination effect (Chou-Talalay combination index)” value (HL60-ABCG2 cells; 10 µM ensartinib with mitoxantrone) was “synergistic (synergistic (CI < 0.9))”. The “RR (reversal ratio)” value (HL60-ABCG2 cells; mitoxantrone, IC50 single drug / IC50 combined with 10 µM ensartinib) was 18.6 and the IC50 (ABCB1) was 3.69 µM.
